For orientation: melting point means the temperature, or range, at which the solid turns liquid.

Regarding `O=C(c1ccccc1)c1cc([N+](=O)[O-])ccc1O`, the melting point fell in the range of 125 to 126 °C.

`CCn1cc(C(=O)O)c(=O)c2ccc(-c3cccnc3)cc21` yielded a melting point of 268 to 269 °C.

The molecule `COc1cc(C(C)C)c(Oc2c(N)nc(N)nc2C2COC(C)(C)OC2)cc1I` returned a melting point of 167 to 168 °C.

Molecule `COc1ccc(CN2CCC(c3cc(-c4ccc(Cl)cc4)[nH]n3)CC2)cc1` came in with a melting point of 166 to 168 °C.

The molecule `CCOCC(C)Oc1ccc(COc2cnn(C(C)(C)C)c(=O)c2Cl)cc1` (stereo unspecified) returned a melting point of 72.3 to 73.1 °C.

The molecule `CN1CCOc2c(C(=O)O)cc(Cl)cc21` had a melting point of 202 to 204 °C.

Take `CSc1c(C)nc(C(C)C)nc1O`: the melting point is 156 °C.

`CCCCN(CCCC)Cc1nc(-c2ncn3c2CN(C)C(=O)c2ccccc2-3)no1` came in with a melting point of 105 to 110 °C.

Consider `O=C(c1cccs1)c1cnn2c(-c3cccc(-c4ccn(CCN5CCCC5)n4)c3)ccnc12`, for which the melting point worked out at 63 °C.

In turn, `O=C(c1ccc(C2=CCCCC2)cc1)N1Cc2cccn2Cc2ccccc21` gave a melting point of 66 °C.

Regarding `Cc1c(SCCCN2CCNCC2)ccnc1CNc1cnc2ccccc2c1`, the melting point lay within 105 to 108 °C.

With `CN1CCN(C(=O)OC2C3=C(SCCS3)C(=O)N2c2ccc3cccnc3n2)CC1` (stereo unspecified), the melting point was 255 °C.

In turn, `COc1cccc(-c2ccc3c(C(=O)Nc4cccnc4)c(OC)ccc3c2)c1` gave a melting point of 154 °C.

Turning to `CC(=O)N(C)c1cc(-c2ccnc3c(C(=O)c4cccs4)cnn23)ccc1F`, the melting point lay in the range of 165 to 167 °C.

The molecule `CCc1cccc(CNC[C@@H](O)[C@H](Cc2cc(F)cc(F)c2)NC(=O)c2ccc3ccncc3c2)c1` yielded a melting point of 142 to 143 °C.

Consider `COc1ccc([C@@H]2Sc3cc(Cl)ccc3N(CCCN3CCN(c4ccccc4)CC3)C(=O)[C@@H]2O)cc1` (relative stereo), for which the melting point is 70 to 71 °C.

In turn, `N#CCCNC(=O)c1cccc(-c2ccc3c(c2)N(Cc2ccc(Cl)cc2Cl)CC3)c1` displayed a melting point of 148 to 149 °C.

The molecule `COc1nc(C)n2nc(S(=O)(=O)Cl)nc2c1Cl` registered a melting point of 100 to 101 °C.

Consider `CC(c1oc2ccccc2c(=O)c1-c1cccc(F)c1)n1nc(-c2cncnc2)c2c(N)ncnc21` (stereo unspecified), for which the melting point fell in the range of 207 to 211 °C.

`O=C1Oc2ccc3ccccc3c2CC1C(=O)c1cccc(C(F)(F)F)c1` (stereo unspecified) registered a melting point of 192 to 193 °C.

The molecule `C=CS(=O)(=O)C=CSc1ccc(C(C)(C)C)cc1` showed a melting point of 62 to 64 °C.

For the molecule `O=C(Nc1ccc(C(F)(F)F)cc1Cl)[C@H]1[C@H](c2ccccc2)C12CCCC2` (relative stereo), the melting point was 131 to 133 °C.

`COc1cccc([C@H]2O[C@H](CC(=O)NCc3ccoc3C(=O)O)C(=O)N(CC(C)(C)CO)c3ccc(Cl)cc32)c1OC`: the melting point was in the range of 125 to 128 °C.

On to `CCCC1(O)CSC(=S)N1c1cccc(C)n1` (stereo unspecified), for which the melting point was 70 °C.

In turn, `O=C(C=CCc1ccccc1)NCCCCCC(=O)NO` showed a melting point of 126 to 128 °C.

As for `Clc1cccc2c1sc1ncnn12`, the melting point was 203 °C.

Consider `CC(O)c1cc2c(Cl)cc(F)c(-n3c(=O)cc(C(F)(F)F)n(C)c3=O)c2o1` (stereo unspecified), for which the melting point lay within 154 to 157 °C.

Regarding `COC(=O)c1ccc2cccc(OS(=O)(=O)C(F)(F)F)c2n1`, the melting point was 77 to 78 °C.

`CON=C(C1=CN(C)CC=C1)C(F)(F)F` had a melting point of 140 to 143 °C.

Consider `Clc1cc(Cl)n2ncc(Br)c2n1`, for which the melting point fell in the range of 73 to 75 °C.

Consider `COc1cc(Nc2c(C#N)cnc3cc(/C=C/C(=O)O)ccc23)c(Cl)cc1Cl`, for which the melting point was in the range of 237 to 240 °C.

Regarding `CCOc1cccc2cc(C(=O)C34CC5CC(CC(C5)C3)C4)oc12`, the melting point fell in the range of 84 to 86 °C.

The molecule `CC(=O)Nc1cc([N+](=O)[O-])ccc1OCCCN` yielded a melting point of 110 to 120 °C.

`CCOC(=O)c1c(C(F)(F)F)nc(C(F)(F)Cl)c(C(=O)OC)c1NN1CCCC1` gave a melting point of 101 to 103 °C.

For the molecule `O=C(NS(=O)(=O)C=Cc1ccc([N+](=O)[O-])cc1)c1ccccc1`, the melting point fell in the range of 192 to 195 °C.

As to `O=c1c2c(c3cccnc3n1-c1ccccc1)CCCC2`, the melting point was in the range of 160 to 162 °C.

On to `Cc1nc2c(N)nc3ccccc3c2n1CCC1(O)CCCCC1`, for which the melting point is over 252 °C.

The molecule `COc1ccc(-c2nc(N)sc2CCC2CCCCC2)c(OC)c1` displayed a melting point of 122 °C.

`CC(CC(=O)O)c1ccc(O)cc1O` (stereo unspecified) returned a melting point of 92 to 94 °C.

With `CCCCc1nc2c(N)nc3ccccc3c2n1OC`, the melting point lay within 197 to 199 °C.

With `CC(=O)NC=Cc1ccc(OCC(O)CNC(C)C)cc1` (stereo unspecified), the melting point fell in the range of 144 to 146 °C.

As to `O=[N+]([O-])c1nccn1CCCl`, the melting point is 85 to 87 °C.

For the molecule `O=C(O)C(=O)CC(=O)c1cccn1Cc1cccc(Br)c1`, the melting point was 164 to 166 °C.

In turn, `O=S(=O)(Cc1ccccc1)N1CCC(c2ccc(O)cc2O)CC1` had a melting point of 207 to 208 °C.

`OC(CN1CCC(c2c[nH]c3ccccc23)CC1)C1COc2ccccc2O1` (stereo unspecified) yielded a melting point of 145 °C.

Regarding `NCC1(O)C2CC3CC(C2)CC1C3` (stereo unspecified), the melting point is 154 to 156 °C.

As for `COc1cn(-c2ccc(N3CCNC3=O)cc2F)nc(-c2ccnn2-c2ccccc2)c1=O`, the melting point lay within 259 to 260 °C.

In the case of `CCCc1cc(Cl)c2oc(Cc3ccccc3)c(C)c2c1O`, the melting point lay in the range of 69 to 70 °C.

Molecule `Cc1ccc(-c2ccc(C(=O)Nc3ccc4cc(CN5CCCC5)cnc4c3)c(F)c2)cc1` gave a melting point of 173 °C.

The molecule `O=C(NCCC(F)(F)F)c1nc(Cl)c(Cl)[nH]1` showed a melting point of 177 °C.

Consider `O=S(=O)(c1c[nH]cc1-c1ccc(Cl)cc1)C(F)(F)F`, for which the melting point is 138 to 141 °C.

Consider `CN1CCCNC1=C[N+](=O)[O-]`, for which the melting point was in the range of 114 to 115 °C.

Take `CC(C)N1CCC(NC(=O)Nc2ccccc2CCc2cc(C(C)(C)C)c(O)c(C(C)(C)C)c2)CC1`: the melting point was 191 to 193 °C.

For `O=Cc1ccc(OC(F)F)c([N+](=O)[O-])c1`, the melting point was in the range of 88 to 90 °C.

The molecule `CCc1nc2cc(/C=C/C(=O)NO)ccc2c(=O)n1CCCc1ccccc1` showed a melting point of 189 to 191 °C.

Turning to `Cc1c(SCCCSc2sccc2[N+](=O)[O-])ccnc1CO`, the melting point lay within 134 to 138 °C.

Turning to `O=C(CCCCNC(=O)c1cn2c3c(cccc13)CCC2)NOCc1ccccc1`, the melting point is 154 to 155 °C.

For `O=C1CC(c2ccccc2Cl)Cc2nccc(Cl)c21` (stereo unspecified), the melting point was 130 to 131 °C.

With `O=C1CSC(=S)N1C(=O)Nc1ccc2nc(S)sc2c1`, the melting point is 212 to 217 °C.

The molecule `CNC(=O)OC1CCC2(CO2)C(C2(C)OC2CC=C(C)C)C1OC` (stereo unspecified) yielded a melting point of 92 to 93 °C.

In turn, `CCCCC[C@H]1CC[C@H](c2ccc(-c3ccc(C=O)cc3)cc2)CC1` came in with a melting point of 115 to 116 °C.

As for `CCCCCc1c(C(=O)O)nn(-c2ccc(Cl)cc2Cl)c1-c1ccc(Cl)cc1`, the melting point stood at 187 °C.

The molecule `NC(=S)NN=C(CCCCl)c1ccc(Cl)cc1` showed a melting point of 125 to 126 °C.

`Cn1cc(-c2cccc(C(F)(F)F)c2)c(=O)o1`: the melting point lay within 132 to 134 °C.

For `CC#CCOc1ccc(S(=O)C(C(=O)NO)c2ccc3ccccc3c2)cc1` (stereo unspecified), the melting point worked out at 157 °C.

The molecule `CCOc1ccc(C2=NN(c3ccc(C(=O)N4CCN(c5nc(-c6ccccc6)ns5)CC4)cc3)C(=O)[C@@H]3CC=CC[C@H]23)cc1OCC` registered a melting point of 168 to 169 °C.

The molecule `COc1cccc(C(=O)Nc2ccc(N3CCCC3)cc2C(C)=O)c1OC` showed a melting point of 137 to 140 °C.

`C#CCOc1ccc(OC)cc1-c1nc2cnccc2[nH]1` came in with a melting point of 210 °C.

For the molecule `CCOC(=O)c1cc2cc(O)ccc2n1C`, the melting point lay in the range of 140 to 142 °C.

Molecule `COc1cc(N2CCCN(C[C@@H](C)O)CC2)ccc1Nc1ncc2ccc(-c3ccccc3OC)n2n1` showed a melting point of 70 to 79 °C.

`CC(C)NS(=O)(=O)c1cc(-c2ncnc(C(F)F)c2Cl)c(F)cc1Cl` showed a melting point of 172 to 175 °C.

Take `CC1(C)NC(SCc2ccccc2N)=NC1=S`: the melting point was in the range of 103 to 104 °C.

`C#CCOc1cc(C(N)=O)cc(Cl)c1OCC#C`: the melting point fell in the range of 122 to 125 °C.

`COc1ccccc1NC(=O)c1ccc([N+](=O)[O-])cc1`: the melting point is 146 to 147 °C.

`CN1c2ccc(Cl)cc2C(c2ccccc2Br)=Nc2cccnc21` registered a melting point of 121 to 123 °C.

Molecule `COc1ccc(Nc2ccnc(Nc3cc(OC)c(OC)c(OC)c3)n2)cc1OC` came in with a melting point of 86 °C.

Consider `CC(=O)OC(C)OC(=O)N1c2ccccc2Sc2cc(O)c3ccccc3c21` (stereo unspecified), for which the melting point was 102 to 112 °C.

In turn, `O=C(O)c1cc(-c2ccc(Br)cc2)c(=O)n(Cc2ccc(Cl)cc2Cl)c1` showed a melting point of 137 to 139 °C.

In turn, `COc1ccc(C(C#Cc2ccccc2)CNC(=O)C(F)(F)F)cc1OC1CCCC1` (racemic) came in with a melting point of 143 to 145 °C.

`CC(C)(C)c1ccc(S(=O)(=O)NCc2ccc(C(=O)O)cc2)cc1`: the melting point was in the range of 290 to 291 °C.

With `N#Cc1cc(-c2nc3cncnc3s2)ccc1Oc1ccccc1Cl`, the melting point lay within 209 to 211 °C.

In turn, `CCCCC(O)CN1N=CCCC1c1ccc(F)cc1` (stereo unspecified) came in with a melting point of 75 to 77 °C.

The molecule `Cn1nc2nnsc2c1Br` registered a melting point of 99 to 101 °C.

`CS(=O)(=O)Nc1cc2oc(C(N)=O)cc(=O)c2cc1Oc1ccccc1` displayed a melting point of over 250 °C.

`O=C1CN(C(=O)c2ccccc2)c2ccccc2N1` had a melting point of 208 °C.

With `Fc1ccc(-c2cc3ccccc3n2-c2ccccc2)cc1`, the melting point is 126 to 128 °C.

`CCc1ccc(Oc2cnc[nH]c2=O)cc1` had a melting point of 144 to 146 °C.

On to `CC1CN(C(P(=O)(O)O)P(=O)(O)O)CC(C)S1` (stereo unspecified), for which the melting point fell in the range of 219 to 220 °C.

`Cc1nc(N)nc(N)c1N1CCN(c2ccc(C=NOCC(=O)OCCc3ccccc3)cc2)CC1` registered a melting point of 255 to 257 °C.

The molecule `O=C(NCC12CC3CC(CC(C3)C1)C2)c1cc(-c2cccnc2N2CCC[C@H]2C(=O)O)ccc1Cl` displayed a melting point of 121 to 125 °C.

In turn, `O=c1cc(-c2ccc3[nH]ncc3c2)oc2ncc(CN3CCOCC3)cc12` displayed a melting point of 293 °C.

Values taken from a melting point compilation (Tetko et al.; mined from patent text by program, amines drawn as free bases though some values may be those of a salt).
